Laboratory results as given in patent publication US20130039928A1, “COMPOSITIONS AND METHODS FOR REVERSING CORTICOSTEROID RESISTANCE OR TREATING RESPIRATORY INFECTIONS” (priority 2010, published 2013).
Like-named read-outs stand apart in the source and are kept apart here. Blank lines part the entries; values can stand above or below the compound they belong to. Peptide text beside a SMILES is read from it. * marks the point of attachment. Cbz = O=C(OCc1ccccc1)*

Legend:
IL-8 = assay: Corticosteroid responsiveness: basal and LPS-induced IL-8 secretion by alveolar macrophages; type: cell-based, human
Method: (§1) For inducing corticosteroid resistance, PMs were exposed to cigarette smoke condensate (CSC, 100 μg/ml; Murty Pharmaceuticals, Lexington, Ky.) for 16 h. Exposure to S-nitrosoglutathione (GSNO, 10 μM) was limited to 4 h. […] For assessing corticosteroid responsiveness, macrophages were incubated with dexamethasone (1 μM, Sigma) for 1 h followed by LPS (100 ng/ml, Sigma) for additional 4 h.
For human IL-8 and mouse IL-6 and MCP-1 proteins, Quantikine ELISA kits from R&D systems (Minneapolis, Minn.) were used according to the manufacturer's instructions.

HDAC2 [1] = type: cell-based, human
Method: as §1
(§2) HDAC activity was measured using a fluorescent derivative of ε-acetyl-lysine from Enzo life sciences (Farmingdale, N.Y.) according to the manufacturer's recommendations. HDAC2 was immunoprecipitated for analysis of enzymatic activity.
(§3) Macrophage cell or lung tissue extracts were prepared by using 100 μL of immunoprecipitation buffer (50 mM Tris-HCl, pH 8.0, 150 mM NaCl, 1.0% Triton X-100, 0.5% NP-40, 0.1% SDS, 0.5% deoxycholate, and complete protease inhibitor cocktail) from Roche (Morristown, N.J.). The lysis mixture was incubated on ice for 15 minutes and microcentrifuged for 10 minutes at 4° C. Extracts were precleared with 20 μL protein A/G sepharose beads (a 50:50 mix) from Thermo scientific (Rockford, Ill.) and 2 μg of normal IgG. After microcentrifugation, 20 μL of protein A/G sepharose conjugated with 5 μg of antibody was used to precipitate HDAC2 (Santa Cruz Biotechnology, Santa Cruz, Calif.) overnight at 4° C. with rotation. The immune complexes were pelleted with gentle centrifugation, washed twice with 1 mL of immunoprecipitation buffer, and divided equally for the final wash for the activity assay and immunoblotting. For the HDAC assay, immunoprecipitates were resuspended in the activity assay buffer (50 mM TrisHCl, pH 8.0; 10% glycerol; 1 mM dithiothreitol; 0.1 mM EDTA, complete protease inhibitor cocktail). For HDAC2-specific western blotting, immune complexes were washed three times with the immunoprecipitation buffer and finally resuspended in Laemmli buffer for the SDS-PAGE.

HDAC2 [2] = assay: Posttranslational modification of HDAC2 in alveolar macrophages (immunoblot, DAN, biotin-switch); type: cell-based, human; conditions: for levels of SNO-HDAC2: GSNO-exposed alveolar macrophages
Method: S-nitrosylation of proteins was analyzed by anti-SNO antibody, biotin switch assay, and or 2,3-diaminonapthalene (DAN) assay. […] Detail methodology is described in supplementary data.
as §3
For HDAC2-specific nitrosylation detection, cells were lysed in buffer (50 mM Tris-HCl, pH 8.0, 150 mM NaCl, 1% Nonidet P-40, 0.5% deoxycholic acid, 0.1% SDS). […] The pellets were resuspended in 500 μL of PBS.
This assay was performed in the dark.
The Image J program was used for densitometry analyses.

NO = NO levels and iNOS expression in alveolar macrophages; type: cell-based, human; conditions: COPD alveolar macrophages, vs vehicle
Method: as §1, §2
(§4) Total RNA was extracted from the cells by lysis and specific binding to a silica membrance (Qiagen RNeasy kit, Qiagen, Valencia, Calif.), and qRT-PCR was performed by using primers and probe sets for human IL-8, NQO1, GCLM, and iNOS (Assay-on-Demand, Applied Biosystems, Foster City, Calif.). A real-time fluorescent PCR system (ABI 7000 Taqman system, Applied Biosystems) was used to perform these assays. β-actin was used as the normalization control.

HDAC2 [3] = target: T1, HDAC2 (Homo sapiens, UniProt Q92769); assay: Cell-free denitrosylation and activity of HDAC2 (cell lysates, IP-HDAC2); type: biochemical
T1 construct: HDAC2 was immunoprecipitated for analysis of enzymatic activity; endogenous in cells; host or cells: alveolar macrophages from patients with COPD; HDAC2 immunoprecipitated with the Santa Cruz antibody
T1 sequence (Q92769 whole entry): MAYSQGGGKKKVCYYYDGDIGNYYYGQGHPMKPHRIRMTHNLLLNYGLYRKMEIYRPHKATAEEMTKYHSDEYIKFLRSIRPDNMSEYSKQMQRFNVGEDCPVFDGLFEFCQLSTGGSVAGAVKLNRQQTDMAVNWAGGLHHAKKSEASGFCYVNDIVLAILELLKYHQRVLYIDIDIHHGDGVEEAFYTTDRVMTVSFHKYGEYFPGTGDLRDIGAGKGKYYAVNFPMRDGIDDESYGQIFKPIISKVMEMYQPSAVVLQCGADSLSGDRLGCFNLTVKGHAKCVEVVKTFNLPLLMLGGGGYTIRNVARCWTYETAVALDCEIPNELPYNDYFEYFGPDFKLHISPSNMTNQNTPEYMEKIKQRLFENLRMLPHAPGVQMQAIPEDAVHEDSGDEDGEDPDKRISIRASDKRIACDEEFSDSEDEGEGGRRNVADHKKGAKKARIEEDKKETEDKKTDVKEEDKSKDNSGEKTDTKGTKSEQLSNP
Method: as §2, §3
S-nitrosylated proteins were detected by using the nitrate/nitrite fluorometric assay kit from Cayman chemicals (Ann Arbor, Mich.) according to the manufacturer's instructions. For HDAC2-specific nitrosylation detection, cells were lysed in buffer (50 mM Tris-HCl, pH 8.0, 150 mM NaCl, 1% Nonidet P-40, 0.5% deoxycholic acid, 0.1% SDS). These lysates were then subjected to immunoprecipitation by using an anti-HDAC2 antibody as described above. The immunoprecipitates were washed twice with lysis buffer and twice with PBS. The pellets were resuspended in 500 μL of PBS. After the addition of 100 μM HgCl2 and 100 μM DAN, the samples were incubated in the dark at 25° C. for 30 minutes, and 1 M NaOH was added. The generated fluorescent triazole from the reaction of the DAN with the NO released from the HDAC2 protein was measured by using an excitation wavelength of 375 nm and an emission wavelength of 450 nm. As a negative control, the antibody alone in lysis buffer was immunoprecipitated. The resulting background fluorescence intensity was subtracted for each experiment.

[4] = target: recombinant HDAC2 (rHDAC2) (Homo sapiens, UniProt Q92769); assay: Cell-free enzymatic activity of recombinant HDAC2; type: biochemical
Chain of recombinant HDAC2 (rHDAC2) (Q92769 whole entry, species assumed): as the sequence (Q92769 whole entry) above
Method: as §2

IL-8 promoter = assay: ChIP of IL-8 promoter (histone acetylation, HDAC2 binding) in alveolar macrophages; type: cell-based, human
Method: as §1
Chromatin immunoprecipitation was performed as described previously (Hogg, J. C. & Timens, W., Annu Rev Pathol (2008)). Briefly, cells were fixed in ˜1% formaldehyde in cell growth media for 10 minutes followed by glycine fixation. Cells were then sonicated in ChIP-lysis buffer containing a protease inhibitor cocktail after incubation on ice for 30 minutes. […] sonication, the samples were spun at maximum speed for 12 minutes in a cold microcentrifuge. The supernatants were then addressed as input samples. A part of the input sample was precleared by using a 50% slurry of protein A/G beads prepared in immunoprecipitation (IP) buffer for 2 hours in the cold, following which the beads were centrifuged out and the supernatant was used for IP. Then the precleared samples were incubated with 2 μg of panacetylated histone H4 antibody (ChIP assay kit; Upstate Biotechnology) or anti-HDAC2 antibody from Santa Cruz Biotechnology. As a control, anti-rabbit IgG antibody was added for 1 hour in the cold. The protein A/G bead slurry was added to each reaction and was rotated overnight. The next day, the beads were washed extensively, and the DNA was reverse crosslinked, eluted in elution buffer, and stored at −80° C. until used for sequencing or PCR validation assays. […] This immunoprecipitated DNA was used for PCR amplification by using the specific gene (IL-8 for humans and MCP-1 for mice) promoter PCR assays. PCR primers were used for the IL-8 promoter (forward: 5′-[…]-3′ and reverse: 5′-[…]-3′) and the MCP-1 promoter (forward: 5′-[…]-3′ and reverse: 5′-[…]-3′).

Pseudomonas aeruginosa = assay: Clearance of bacteria in vitro by alveolar macrophages (PA); type: cell-based; conditions: COPD alveolar macrophages
Method: Human alveolar macrophages were purified from individual BAL samples by centrifugation and seeded onto 6-well tissue culture plates. After incubation for 2 h, non-adherent cells were removed and the adherent cells were incubated with R, S-sulforaphane (5 μM; LKT Laboratories, Inc., St. Paul, Minn.) and or DMSO in RPMI 1640 culture medium with 10% FBS and 1% penicillin-streptomycin (Invitrogen, Carlsbad, Calif.). After 16-20 h, adherent cells were scraped, suspended in RPMI 1640 culture media and plated onto 96-well tissue culture plates for bacterial phagocytosis and clearance assays. […] For MARCO antibody-depletion, alveolar macrophages were incubated with human anti-MARCO antibody (1 μg/ml; (Hycult, Uden, The Netherlands) for 4 hours prior to bacterial challenge.
Sputum isolates of nontypeable H. influenzae and P. aeruginosa obtained from patients with COPD at the Department of Veterans Affairs, Western New York Healthcare System were used (S. Sethi, N. Evans, B. J. Grant, T. F. Murphy, N Engl J Med 347, 465 (Aug. 15, 2002); C. S. Berenson, M. A. Garlipp, L. J. Grove, J. Maloney, S. Sethi, J Infect Dis 194, 1375 (Nov. 15, 2006); T. F. Murphy et al., Am J Respir Crit Care Med 177, 853 (Apr. 15, 2008); T. F. Murphy, A. L. Brauer, A. T. Schiffmacher, S. Sethi, Am J Respir Crit Care Med 170, 266 (Aug. 1, 2004)). For bacterial growth, H. influenzae was cultured on chocolate agar or grown in brain heart infusion broth supplemented with 20 μg/mlNAD and 10 μg/ml hemin at 35° C. in 5% CO2. P. aeruginosa was cultured on LB agar plates or in LB broth at 37° C. For FITC-labeling of bacteria, heat inactivated PA and NTHI (10^9 CFU/ml) were resuspended in 1 ml of labeling buffer (0.1 M NaHCO3, pH 9.2) and incubated with fluorescein isothiocyanate (FITC) (Sigma) under constant stiffing in the dark at room temperature for 1 h. Finally, bacteria were washed three times with PBS and dialyzed overnight against PBS. FITC-labeled bacteria were resuspended with PBS at a concentration of 10^9/ml.
After treatment, macrophages (10^5 cells) were incubated with bacteria (PA or NTHI) for 4 h. Subsequently, 100 μL of cell free culture medium was aseptically plated and cultured on tryptose blood and or chocolate agar plates at 37° C. The number of bacterial colonies was counted after 24 h.

glutathione = assay: Intracellular glutathione levels in COPD macrophages; type: cell-based, human; conditions: COPD alveolar macrophages
HDAC2 [5] = type: cell-based, human; conditions: COPD alveolar macrophages
Method: as §1
All immunoblots were performed by using protocols as described previously (Barnes, P. J., N Engl J Med 343, 269-280 (2000)). Rabbit anti-HDAC2 antibody from Santa Cruz Biotechnology (Santa Cruz, Calif.) was used at 1:500 dilutions. Rabbit anti-5-nitroso-cysteine antibody from Alpha diagnostics was used at 1:500 dilutions. Rabbit anti-nitro-tyrosine antibody from Cell Signaling Technology, was used at 1:250 dilution. Rabbit anti-ubiquitin antibody from Santa Cruz Biotechnology (Santa Cruz, Calif.) was used at 1:1000 dilutions. Rabbit anti-GR antibody from Santa Cruz Biotechnology (Santa Cruz, Calif.) was used at a dilution of 1:1000. Rabbit anti-MMP9 antibody from Sigma Aldrich was used at 1:500 dilutions. Rabbit anti-acetyl-lysine antibody from Abcam was used at 1:750 dilutions. Rabbit anti-lamin-B1 from Santa Cruz Biotechnology (Santa Cruz, Calif.) was used at 1:1000 dilutions as a loading control. The Image J program was used for densitometry analyses.
as §4

[6] = COPD alveolar macrophages, result in words
[7] = cell lysates incubated with GSH

SMILES: COC(=O)[C@@H](N)CCCNC(=N)N[N+](=O)[O-] [L-NAME, L-nitroarginine methyl ester]
- DEX's repressive effect on basal and LPS-induced IL-8 expression (DEX responsiveness) (IL-8; protein and mRNA): failed
- HDAC2 enzymatic activity (HDAC2 [1]; [6]): failed to increase HDAC2 enzymatic activity
- tyrosine nitration of HDAC2 (nitrotyrosine-HDAC2) (HDAC2 [2]; immunopurified HDAC2 from alveolar macrophages, compared with vehicle): significantly decreased levels of nitrotyrosine-HDAC2
- NO levels (NO): suppressed NO generation

- S-nitrosylation of IP-HDAC2 (HDAC2 [3]; GSNO exposure): elevated S-nitrosylation
- enzymatic activity of IP-HDAC2 (HDAC2 [3]; GSNO exposure): decreased enzymatic activity
SMILES: N[C@@H](CCC(=O)N[C@@H](CSN=O)C(=O)NCC(=O)O)C(=O)O [GSNO, S-nitrosoglutathione]
- DEX resistance (IL-8; GSNO exposure): did not further increase DEX resistance
- LPS-induced IL-8 secretion (IL-8; GSNO treatment (10 μM, 4 h)): moderately augmented LPS-induced IL-8 secretion
- HDAC2 enzymatic activity (HDAC2 [1]; [6]): decreased HDAC2 enzymatic activity
- rHDAC2 enzymatic activity ([4]; with GSNO): significantly inhibited rHDAC2 enzymatic activity

SMILES: CC(/C=C/C(=O)NO)=C\[C@@H](C)C(=O)c1ccc(N(C)C)cc1 [TSA, trichostatin]
- basal and LPS-induced histone acetylation in the IL-8 promoter region (IL-8 promoter; cotreatment with sulforaphane, with and without DEX): ablated sulforaphane repressed basal and LPS-induced histone acetylation

SMILES: CC(=O)N[C@@H](CS)C(=O)O [NAC, N-acetyl cysteine]
- bacterial clearance (Pseudomonas aeruginosa): failed to improve bacterial clearance
- intracellular glutathione levels (glutathione): increased intracellular glutathione levels
- levels of SNO-HDAC2 (HDAC2 [2]): failed to ameliorate SNO-HDAC2 levels

- S-nitrosylation and enzymatic activity of GSNO-exposed IP-HDAC2 (HDAC2 [3]; after incubation with GSH): reversed by GSH treatment
- HDAC2 activity (HDAC2 [3]; [7]): concurrent increase in HDAC2 activity
- nitrosylation (DAN assay) (HDAC2 [3]; [7]): denitrosylation by GSH
- rHDAC2 enzymatic activity after GSNO treatment ([4]; in the presence of GSH): restored by GSH
SMILES: N[C@@H](CCC(=O)N[C@@H](CS)C(=O)NCC(=O)O)C(=O)O [GSH, glutathione]

SMILES: CC(C)C[C@@H](C=O)NC(=O)[C@H](CC(C)C)NC(=O)[C@H](CC(C)C)NC(=O)OCc1ccccc1 [MG132] (Cbz-Leu-Leu-Leu-aldehyde)
- HDAC2 binding in the IL-8 promoter (IL-8 promoter; COPD alveolar macrophages): no increase
- HDAC2 enzymatic activity (HDAC2 [1]; [6]): no increase in HDAC2 enzymatic activity
- HDAC2 protein levels (HDAC2 [5]): increase in total HDAC2 protein

SMILES: CCOC(=O)CNC(=O)[C@H](CS)NC(=O)CC[C@H](N)C(=O)O [GSH-e, GSH-ethyl ester]
- bacterial clearance (Pseudomonas aeruginosa): failed to improve bacterial clearance
- intracellular glutathione levels (glutathione): increased intracellular glutathione levels
- repressive effect of DEX on basal and LPS-induced IL-8 secretion (IL-8; GSNO exposed COPD alveolar macrophages, GSH-e 1 mM): significantly increased the repressive effect of DEX
- HDAC2 enzymatic activity (HDAC2 [1]; treatment after GSNO exposure of alveolar macrophages): significantly elevated HDAC2 enzymatic activity
- levels of SNO-HDAC2 (HDAC2 [2]): significant reduction in the levels of SNO-HDAC2
